From patent US7691889B2, “Antimycobacterial compounds” (Lupin Limited, priority 2002, dated 2010)
Values after ≈ are worked out from the molar mass of the structure shown.

Assays:
M. tuberculosis 27294 = assay: In vitro agar dilution assay (MIC), reference strain; assay type: cell-based, Mycobacterium tuberculosis; conditions: for MIC: Mycobacterium tuberculosis, 27294, Middlebrook 7H10, read-out: MIC against M. tuberculosis 27294; for MIC against M. tuberculosis 27294: Middlebrook 7H10
[1] = system: M. tuberculosis clinical isolates, sensitive; assay: microbe, parasite or virus in culture; assay type: cell-based, Mycobacterium tuberculosis; conditions: for MIC: Mycobacterium tuberculosis, read-out: MIC against Clinical isolates Sensitive; for MIC against Clinical isolates Sensitive: Table I, agar dilution

| Compound | MIC (M. tuberculosis 27294) [µg/mL] | MIC [1] [µg/mL] | MIC against M. tuberculosis 27294 (M. tuberculosis 27294) [µg/mL] | MIC against Clinical isolates Sensitive [1] [µg/mL] |
| --- | --- | --- | --- | --- |
| O=C(CCC(=O)c1ccc2ccccc2c1)NC[C@H]1CN(c2ccc(-c3nc[nH]n3)c(F)c2)C(=O)O1 [Compound 48, (S)-N-[[3-(3-fluoro-4-(1,2,4-triazolyl)phenyl)-2-oxo-5-oxazolidinyl]methyl]-4-(2-naphthyl)-4-oxobutanamide] | 2 (≈ 4.1 µM) | 2 to 4 (≈ 4.1 to 8.21 µM) |  |  |
| O=C(CCC(=O)c1ccc(Cl)cc1)NC[C@H]1CN(c2ccc(-c3nc[nH]n3)c(F)c2)C(=O)O1 [Compound 49, (S)-N-[[3-(3-fluoro-4-(1,2,4-triazolyl)phenyl)-2-oxo-5-oxazolidinyl]methyl]-4-(4-chlorophenyl)-4-oxobutanamide] | 4 (≈ 8.48 µM) | 4 to 16 (≈ 8.48 to 33.9 µM) |  |  |
| CC(=O)Nc1ccc(C(=O)CCC(=O)NC[C@H]2CN(c3ccc(-c4nc[nH]n4)c(F)c3)C(=O)O2)cc1 [Compound 50, (S)-N-[[3-(3-fluoro-4-(1,2,4-triazolyl)phenyl)-2-oxo-5-oxazolidinyl]methyl]-4-(4-acetamidophenyl)-4-oxobutanamide] | 2 (≈ 4.04 µM) | 2 to 4 (≈ 4.04 to 8.09 µM) |  |  |
| O=C(CCC(=O)c1cccs1)NC[C@H]1CN(c2ccc(N3CCCCC3)c(F)c2)C(=O)O1 [Compound 52, (S)-N-[[3-(3-fluoro-4-piperidylphenyl)-2-oxo-5-oxazolidinyl]methyl]-4-oxo-4-(2-thienyl)butanamide] |  |  | 2 (≈ 4.35 µM) | 2 (≈ 4.35 µM) |
| CC(=O)Nc1ccc(C(=O)CCC(=O)NC[C@H]2CN(c3ccc(N4CCCCC4)c(F)c3)C(=O)O2)cc1 [Compound 54, (S)-N-[[3-(3-fluoro-4-piperidylphenyl)-2-oxo-5-oxazolidinyl]methyl]-4-(4-acetamidophenyl)-4-oxobutanamide] |  |  | 8 (≈ 15.7 µM) | 8 to 16 |
| O=C(C=CC(=O)c1ccccc1)NC[C@H]1CN(c2ccc(N3CCCCC3)c(F)c2)C(=O)O1 [Compound 55, (S)-N-[[3-(3-fluoro-4-piperidylphenyl)-2-oxo-5-oxazolidinyl]methyl]-4-oxo-4-phenylbut-2-enamide] |  |  | >16 | >16 |
| CSc1ccc(C(=O)CCC(=O)NC[C@H]2CN(c3ccc(N4CCCC4)c(F)c3)C(=O)O2)cc1 [Compound 56, (S)-N-[[3-(3-fluoro-4-pyrrolidinylphenyl)-2-oxo-5-oxazolidinyl]methyl]-4-oxo-4-(4-thiomethylphenyl)butanamide] |  |  | >16 | >16 |
| CC(=O)NC[C@H]1CN(c2ccc(N3CCOCC3)c(F)c2)C(=O)O1 [Linezolid, (S)-N-[[3-[3-fluoro-4-(4-morpholinyl)phenyl]-2-oxo-5-oxazolidin-yl]methyl]-acetamide, reference compound] | 0.5 (≈ 1.48 µM) | 0.25 to 0.5 (≈ 0.741 to 1.48 µM) |  |  |
| (S)-N-[[3-(3-fluoro-4-(1,2,4-triazolyl)phenyl)-2-oxo-5-oxazolidinyl]methyl]-4-(2′,2′-dimethyl-4-ethylphenyl)-4-oxobutanamide [Compound 45] |  |  | 2.0 | 2 to 4 |
| (S)-N-[[3-(3-fluoro-4-(1,2,4-triazolyl)phenyl)-2-oxo-5-oxazolidinyl]methyl]-4-oxo-4-phenylbutanamide [Compound 40] |  |  | 1 | 1 to 2 |
| (S)-N-[[3-(3-fluoro-4-morpholinylphenyl)-2-oxo-5-oxazolidinyl]methyl]-4-[4-(2′,2′-dimethyl-4-ethylphenyl)-4-oxobutanamide [Compound 20] |  |  | 1 | 1 to 2 |
